Experimental data reported in patent publication US20070185161A1, “Bicyclic substituted indole-derivative steroid hormone nuclear receptor modulators” (priority 2004, published 2007).

Target: T1, human MR (Homo sapiens, UniProt P08235)
T1 construct: The full length human MR gene is cloned from a human kidney or human brain cDNA library; made in house; host or cells: SF9 insect cells (baculovirus)
T1 sequence (P08235 1-984): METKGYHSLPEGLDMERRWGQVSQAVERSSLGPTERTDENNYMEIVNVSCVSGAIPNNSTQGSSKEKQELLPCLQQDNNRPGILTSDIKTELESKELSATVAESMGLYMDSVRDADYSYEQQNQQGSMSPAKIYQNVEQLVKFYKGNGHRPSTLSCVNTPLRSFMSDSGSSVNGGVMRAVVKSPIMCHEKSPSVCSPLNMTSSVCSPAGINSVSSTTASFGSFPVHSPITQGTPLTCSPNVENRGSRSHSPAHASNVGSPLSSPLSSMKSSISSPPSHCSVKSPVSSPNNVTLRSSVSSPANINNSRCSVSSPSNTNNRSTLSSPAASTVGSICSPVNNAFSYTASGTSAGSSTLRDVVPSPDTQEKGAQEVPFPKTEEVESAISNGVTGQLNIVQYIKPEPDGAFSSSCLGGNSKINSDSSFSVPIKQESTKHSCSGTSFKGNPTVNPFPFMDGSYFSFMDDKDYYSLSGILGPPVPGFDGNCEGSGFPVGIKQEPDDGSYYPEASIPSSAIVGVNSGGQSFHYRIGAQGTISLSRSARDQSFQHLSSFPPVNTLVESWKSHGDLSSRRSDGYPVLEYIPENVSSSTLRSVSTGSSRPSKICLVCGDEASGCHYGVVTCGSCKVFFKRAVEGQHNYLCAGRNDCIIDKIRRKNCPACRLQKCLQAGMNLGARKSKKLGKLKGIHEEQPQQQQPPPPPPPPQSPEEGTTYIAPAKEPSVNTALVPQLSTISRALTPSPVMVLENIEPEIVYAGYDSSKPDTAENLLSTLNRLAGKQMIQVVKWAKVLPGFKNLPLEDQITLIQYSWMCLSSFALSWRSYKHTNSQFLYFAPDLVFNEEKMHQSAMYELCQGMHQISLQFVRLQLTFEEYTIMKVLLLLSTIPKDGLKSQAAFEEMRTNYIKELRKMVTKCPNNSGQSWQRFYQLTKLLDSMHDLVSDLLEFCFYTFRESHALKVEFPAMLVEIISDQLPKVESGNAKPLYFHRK
Test: Mineralocorticoid Receptor Binding Assay (Method 1)
Settings: [3H]-aldosterone, racemic mixture unless otherwise indicated
Method: The full length human MR gene is cloned from a human kidney or human brain cDNA library. Briefly, using synthetic oligonucleotide primers (Eli Lilly and Company, Indianapolis) directed to nucleotides 20-54 and 3700-3666 of the human MR, polymerase chain reaction (PCR) is performed under standard conditions using a human cDNA library. The PCR reaction is performed in a final volume of 50 μl containing about 1 μl of a 50× stock solution of polymerase; about 1 μl of a 50× stock solution of dNTP; about 5 μl of an appropriate PCR buffer; about 1 μl of each primer; about 5 μl of a H. kidney or H. brain cDNA library; and about 36 μl of water. The reaction is allowed to denature for about 30 seconds at 95 degrees Celsius, anneal for about 30 seconds at 55 degrees Celsius, and extend for about 5 minutes at 72 degrees Celsius, the sequence being repeated for a total of about 35 cycles. The desired PCR product (3.68 Kb) is confirmed by gel electrophoresis and subsequently cut from the gel and stored at about −20 degrees Celsius until extraction. To extract the cDNA product from the agarose gel, the QIAEX II Gel Extraction protocol (QIAGEN, Inc.) is employed according to the manufacturer's instructions. Following extraction, the MR cDNA is cloned into an appropriate cloning vector (Zero Blunt TOPO PCR Cloning Kit (Invitrogen, Inc.) and a pAcHLT-baculovirus transfer vector (B.D./Pharminogen), then expressed in SF9 insect cells, essentially according to manufacturer's instructions. Sf9 cells are grown at a scale where gram quantity cell pellets are obtained for subsequent use in the MR binding assay. Harvested cell pellets are lysed by repeated freeze-thaw cycles (about 4) in a suitable lysis buffer then centrifuged at about 1×10^3 G (with the supernatant being saved for future assays).
MR binding assays are performed in a final total volume of about 250 μl containing about 20-25 μg of protein and 0.5 nM of [^3H]-aldosterone plus varying concentrations of test compound or vehicle. The assay binding buffer consists of 30 mM sodium molybdate, 30 mM of TRIS-HCl, 5 mM sodium phosphate, 5 mM sodium pyrophosphate, and about 10% glycerol, pH=7.5.
Briefly, assays are prepared at RT in 96-well Falcon 3072 plates, each well containing 210 μl of binding buffer, 10 μl of [^3H]-aldosterone, 10 μl of test compound/vehicle, and 20 μl of the resuspended receptor protein extract. Incubations are carried out at 4 degrees Celsius with shaking for about 16 hours. 200 μl aliquots of each incubation are filtered onto Millipore HA 0.45 micron 96-well filter plates, pre-moistened with cold 30 mM TRIS-HCl. The filter plates are suctioned dry with vacuum and immediately washed 3× with cold 30 mM TRIS-HCl. The plates are then punched out and the amount of receptor-ligand complex is determined by liquid scintillation counting using 4 ml of Ready Protein Plus™ liquid scintillation cocktail.
IC50 values (defined as the concentration of test compound required to decrease [^3H]-aldosterone binding by 50%) are then determined. Ki values for each respective test compound can then be calculated by application of the Cheng-Prusoff equation as described in Cheng et al., Relationship Between The Inhibition Constant (Ki) and The Concentration of Inhibitor Which Causes 50% Inhibition (IC50) of an Enzymatic Reaction, Biochem. Pharmacol., 22: 3099-31088; (1973).

Ki [nM]	SMILES
≤ 500	CC1(c2c[nH]c3c(NS(C)(=O)=O)cccc23)CCc2cc(F)cc(F)c21 (single isomer, unassigned) [Example 22A, N-[3-(5,7-Difluoro-1-methyl-indan-1-yl)-1H-indol-7-yl]-methanesulfonamide]
≤ 500	CC1(c2c[nH]c3c(NS(C)(=O)=O)cccc23)CCc2ccccc21 (stereo not shown) [Example 20, N-[3-(1-Methyl-indan-1-yl)-1H-indol-7-yl]-methanesulfonamide]
≤ 500	CCC1(c2c[nH]c3c(NS(=O)(=O)c4ccccc4)cccc23)CCc2cc(F)ccc21 (stereo not shown) [Example 18, N-[3-(1-ethyl-5-fluoro-indan-1-yl)-1H-indol-7-yl]-benzenesulfonamide]
≤ 500	CC1(c2c[nH]c3c(NS(C)(=O)=O)cccc23)CCc2cc(F)ccc21 (single isomer, unassigned) [Example 21B, N-[3-(5-Fluoro-1-methyl-indan-1-yl)-1H-indol-7-yl]-methanesulfonamide]
≤ 500	CCC1(c2c[nH]c3c(NS(C)(=O)=O)cccc23)CCc2cc(F)cc(F)c21 (racemic) [Example 23, N-[3-(1-Ethyl-5,7-difluoro-indan-1-yl)-1H-indol-7-yl]-methanesulfonamide]
≤ 500	CC1(c2c[nH]c3c(NS(C)(=O)=O)cccc23)CCc2cc(F)ccc21 (single isomer, unassigned) [Example 21A, N-[3-(5-Fluoro-1-methyl-indan-1-yl)-1H-indol-7-yl]-methanesulfonamide]
≤ 500	CCC1(c2c[nH]c3c(NS(C)(=O)=O)cccc23)CCc2cc(F)ccc21 (single isomer, unassigned) [Example 1A, N-[3-(1-ethyl-5-fluoro-indan-1-yl)-1H-indol-7-yl]-methanesulfonamide]
≤ 500	CCC1(c2c[nH]c3c(NS(C)(=O)=O)cccc23)CCc2cc(F)cc(F)c21 (single isomer, unassigned) [Example 23A, N-[3-(1-Ethyl-5,7-difluoro-indan-1-yl)-1H-indol-7-yl]-methanesulfonamide]
≤ 500	CCC1(c2cn(C)c3c(NS(C)(=O)=O)cccc23)CCc2cc(F)ccc21 (stereo not shown) [Example 5, N-[3-(1-Ethyl-5-fluoro-indan-1-yl)-1-methyl-1H-indol-7-yl]-methanesulfonamide]
≤ 500	CCC1(c2c[nH]c3c(NS(C)(=O)=O)cccc23)CCOc2cc(F)ccc21 (racemic) [Example 35, N-[3-(4-Ethyl-7-fluoro-chroman-4-yl)-1H-indol-7-yl]-methanesulfonamide]
≤ 500	CS(=O)(=O)Nc1cccc2c(C3(CCCN4CCOCC4)CCc4cc(F)ccc43)c[nH]c12 (stereo not shown) [Example 44, N-{3-[5-Fluoro-1-(3-morpholin-4-yl-propyl)-indan-1-yl]-1H-indol-7-yl}-methanesulfonamide]
≤ 500	CC1(c2c[nH]c3c(NS(C)(=O)=O)cccc23)CCOc2cc(F)ccc21 (racemic) [Example 34, N-[3-(7-Fluoro-4-methyl-chroman-4-yl)-1H-indol-7-yl]-methanesulfonamide]
≤ 500	CC1(c2c[nH]c3c(NS(C)(=O)=O)cccc23)CCSc2ccccc21 (stereo not shown) [Example 37, N-[3-(4-Methyl-thiochroman-4-yl)-1-indol-7-yl]-methanesulfonamide]
≤ 500	CCC1(c2c[nH]c3c(NS(C)(=O)=O)cccc23)CCCc2cc(F)ccc21 (single isomer, unassigned) [Example 29B, N-[3-(1-Ethyl-6-fluoro-1,2,3,4-tetrahydro-naphthalen-1-yl)-1H-indol-7-yl]-methanesulfonamide]
≤ 500	CS(=O)(=O)Nc1cccc2c(C3CCCc4ccccc43)c[nH]c12 (stereo not shown) [Example 25, N-[3-(1,2,3,4-Tetrahydro-naphthalen-1-yl)-1H-indol-7-yl]-methanesulfonamide]
≤ 500	CCC1(c2c[nH]c3c(NS(C)(=O)=O)cccc23)CCOc2cc(F)ccc21 (single isomer, unassigned) [Example 35A, N-[3-(4-Ethyl-7-fluoro-chroman-4-yl)-1H-indol-7-yl]-methanesulfonamide]
≤ 500	CCC1(c2c[nH]c3c(NC(=O)OC)cccc23)CCc2cc(F)ccc21 (stereo not shown) [Example 15, [3-(1-Ethyl-5-fluoro-indan-1-yl)-1H-indol-7-yl]-carbamic acid methyl ester]
≤ 500	CNCCCC1(c2c[nH]c3c(NS(C)(=O)=O)cccc23)CCc2cc(F)ccc21 (stereo not shown) [Example 42, N-{3-[5-Fluoro-1-(3-methylamino-propyl)-indan-1-yl]-1H-indol-7-yl}-methanesulfonamide]
≤ 500	CCC1(c2c[nH]c3c(NS(C)(=O)=O)cccc23)CCOc2cc(F)cc(F)c21 (single isomer, unassigned) [Example 36A, N-[3-(4-Ethyl-5,7-difluoro-chroman-4-yl)-1H-indol-7-yl]-methanesulfonamide]
≤ 500	CCC1(c2c[nH]c3c(N)cccc23)CCc2cc(F)ccc21 (stereo not shown) [Example 14, 3-(1-Ethyl-5-fluoro-indan-1-yl)-1H-indol-7-ylamine]
≤ 500	CS(=O)(=O)Nc1cccc2c(C3(CCCI)CCc4cc(F)ccc43)c[nH]c12 (stereo not shown) [Example 41, N-{3-[5-Fluoro-1-(3-iodo-propyl)-indan-1-yl]-1H-indol-7-yl}-methanesulfonamide]
≤ 500	CC1(c2c[nH]c3c(NS(C)(=O)=O)cccc23)CCOc2cc(F)ccc21 (single isomer, unassigned) [Example 34A, N-[3-(7-Fluoro-4-methyl-chroman-4-yl)-1H-indol-7-yl]-methanesulfonamide]
≤ 500	CCC1(c2c[nH]c3c(NS(C)(=O)=O)cccc23)CCCc2ccccc21 (stereo not shown) [Example 27, N-[3-(1-Ethyl-1,2,3,4-tetrahydro-naphthalen-1-yl)-1H-indol-7-yl]-methanesulfonamide]
≤ 500	CS(=O)(=O)Nc1cccc2c(C3(C4CC4)CCc4cc(F)ccc43)c[nH]c12 (single isomer, unassigned) [Example 39A, N-[3-(1-Cyclopropyl-5-fluoro-indan-1-yl)-1H-indol-7-yl]-methanesulfonamide]
≤ 500	CC1(c2c[nH]c3c(NS(C)(=O)=O)cccc23)CCc2cc(F)cc(F)c21 (racemic) [Example 22, N-[3-(5,7-Difluoro-1-methyl-indan-1-yl)-1H-indol-7-yl]-methanesulfonamide]
